Laboratory results reported in US9404082B2, “Method for production of eosinophil from pluripotent stem cell” (KYOTO UNIVERSITY, priority 2010, dated 2016).

Tested on: ES cell (H1)-derived eosinophils
Assay: Measurement of migratory capacity (Transwell)
Assay type: cell-based, human
Settings: 1640 medium with 5% FBS, 1 to 2 hours, IL-5 0.2-25 ng/ml, Eotaxin 0.4-250 nM, fMLP 10 pM-100 nM, FIG. 3
Description: Eosinophils established from ES cells (H1) by the above method were transferred to Transwell, and 1640 medium supplemented with 5% FBS was added thereto. IL-5 (0.2 ng/ml to 25 ng/ml), Eotaxin (0.4 nM to 250 nM) and fMLP (10 pM to 100 nM) at various concentrations were added thereto, and culture was performed for 1 to 2 hours. Thereafter, the number of cells migrated from the top layer to the bottom layer was measured (FIG. 3).

| Substance | number of cells migrated from the top layer to the bottom layer |
| --- | --- |
| Eotaxin: cytokine used to stimulate eosinophil migration | migrate in response to the respective types of stimulation |
| IL-5: cytokine used to stimulate eosinophil migration | migrate in response to the respective types of stimulation |
| fMLP | migrate in response to the respective types of stimulation |
